Values after ≈ are worked out from the molar mass of the structure shown.
Legend:
[1] = in vitro; design: Viability of infected HeLa host cells, resazurin conversion, bulk resorufin fluorescence relative to DMSO; conditions: human, hela cells; bulk resorufin, mean of 3
[2] = test system: T1, CTL2-GFP (C. trachomatis L2/434/Bu, GFP-expressing); assay: microbe, parasite or virus in culture; design: C. trachomatis growth in HeLa, dose-response, mean of bulk GFP fluorescence and imaged total inclusion area; conditions: Chlamydia trachomatis, HeLa, 28.5 h; mean of GFP and inclusion area
T1 construct: L2/434/Bu, GFP-expressing
Outline: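 Screening measures GFP fluorescence from the reporter strain and resorufin fluorescence for host viability, with Hoechst-based imaging of fixed cells adding inclusion area, inclusion number and nuclei count per well.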

[3] = test system: T1, CTL2-GFP (C. trachomatis L2/434/Bu, GFP-expressing); assay: microbe, parasite or virus in culture; design: species or system HeLa; C. trachomatis growth in HeLa, dose-response, mean of bulk GFP fluorescence and imaged total inclusion area; conditions: Chlamydia trachomatis, 28.5 h; mean of GFP and inclusion area
Excerpt: We screened a library of 36,785 small molecules displaying drug-like properties and covering a wide chemical space (Fig 1A and S2A Data). In this process, we also complemented the assay described above with an imaging-based readout (Fig 1B). After measurements of bulk GFP and resorufin fluorescence, cells were fixed, stained with the DNA dye Hoechst, and imaged at a high-content imaging platform to detect chlamydial inclusions (GFP) and host cell nuclei (Hoechst). The total area and number of inclusions in individual wells and the number of nuclei then served as additional proxies for chlamydial growth and host cell viability. […] MICs were calculated as described above.

For `CC(=O)Nc1ccc(-c2cccc(COC3CCN(C(=O)c4ccc(OC(C)C)cc4)CC3)c2)cc1` [c36e], the viability at 28.5 h, 0.000416667 µM [1] was 89.8%, the viability at 28.5 h, 0.00125 µM [1] was 85.4% and the viability at 28.5 h, 0.00375 µM [1] was 90.5%. The viability at 28.5 h, 0.0123333 µM [1] was 89%, the viability at 28.5 h, 0.037 µM [1] was 91.7% and the viability at 28.5 h, 0.111 µM [1] was 89.4%. The viability at 28.5 h, 0.333 µM [1] was 94.8%, the viability at 28.5 h, 1 µM [1] was 92% and the viability at 28.5 h, 3 µM [1] was 95.1%. For the same compound, the viability at 28.5 h, 10 µM [1] was 97.8%, the viability at 28.5 h, 30 µM [1] was 116% and the IC50 [2] was 4.11 µM. It also gave an MIC [3] of 8.26 µM (≈ 4.02 µg/mL).

`CCOc1ccc2nc(NC(=N)N)nc(C)c2c1` [c37e] gave a viability at 28.5 h, 0.000416667 µM [1] of 85.5%, a viability at 28.5 h, 0.00125 µM [1] of 89.1% and a viability at 28.5 h, 0.00375 µM [1] of 85.5%. It also gave a viability at 28.5 h, 0.0123333 µM [1] of 89%, a viability at 28.5 h, 0.037 µM [1] of 86.7% and a viability at 28.5 h, 0.111 µM [1] of 91.1%. The viability at 28.5 h, 0.333 µM [1] was 88.4%, the viability at 28.5 h, 1 µM [1] was 87.7% and the viability at 28.5 h, 3 µM [1] was 84.7%. The viability at 28.5 h, 10 µM [1] was 79%, the viability at 28.5 h, 30 µM [1] was 55.2% and the IC50 [2] was 4.22 µM. For the same compound, the MIC [3] was 11.4 µM (≈ 2.8 µg/mL).

`Cc1cccc(-c2ccc(CC3(C(N)=O)CCN(C(=O)CCc4ccccc4)CC3)cc2)c1` [c38e] showed a viability at 28.5 h, 0.000416667 µM [1] of 101%, a viability at 28.5 h, 0.00125 µM [1] of 97.3% and a viability at 28.5 h, 0.00375 µM [1] of 96.8%. For the same compound, the viability at 28.5 h, 0.0123333 µM [1] was 101%, the viability at 28.5 h, 0.037 µM [1] was 98.4% and the viability at 28.5 h, 0.111 µM [1] was 98.7%. For the same compound, the viability at 28.5 h, 0.333 µM [1] was 94.7%, the viability at 28.5 h, 1 µM [1] was 103% and the viability at 28.5 h, 3 µM [1] was 99.3%. It also gave a viability at 28.5 h, 10 µM [1] of 104%, a viability at 28.5 h, 30 µM [1] of 114% and an IC50 [2] of 4.84 µM. It also gave an MIC [3] of 8.43 µM (≈ 3.71 µg/mL).

`COc1ccc([C@@H]2CN(C)C[C@H]2NC(=O)Nc2ccc(Cl)c(Cl)c2)cc1OC` [c39e] gave a viability at 28.5 h, 0.000416667 µM [1] of 93.1%, a viability at 28.5 h, 0.00125 µM [1] of 88.4% and a viability at 28.5 h, 0.00375 µM [1] of 92.6%. For the same compound, the viability at 28.5 h, 0.0123333 µM [1] was 90.6%, the viability at 28.5 h, 0.037 µM [1] was 94.9% and the viability at 28.5 h, 0.111 µM [1] was 83.9%. The viability at 28.5 h, 0.333 µM [1] was 87.9%, the viability at 28.5 h, 1 µM [1] was 84.4% and the viability at 28.5 h, 3 µM [1] was 86.1%. The viability at 28.5 h, 10 µM [1] was 84.6%, the viability at 28.5 h, 30 µM [1] was 81.3% and the IC50 [2] was 4.96 µM. For the same compound, the MIC [3] was 5.39 µM (≈ 2.29 µg/mL).

In the case of `O=C1C(NCCO)=C(Nc2cccc(Cl)c2)C(=O)c2ccccc21` [c45e], the viability at 28.5 h, 0.000416667 µM [1] is reported as 89.2%, the viability at 28.5 h, 0.00125 µM [1] is reported as 87.4% and the viability at 28.5 h, 0.00375 µM [1] is reported as 91%. For the same compound, the viability at 28.5 h, 0.0123333 µM [1] was 91.6%, the viability at 28.5 h, 0.037 µM [1] was 91.8% and the viability at 28.5 h, 0.111 µM [1] was 88.5%. The viability at 28.5 h, 0.333 µM [1] was 92.8%, the viability at 28.5 h, 1 µM [1] was 89.8% and the viability at 28.5 h, 3 µM [1] was 93.6%. The viability at 28.5 h, 10 µM [1] was 97.9%, the viability at 28.5 h, 30 µM [1] was 102% and the IC50 [2] was 6.16 µM. It also gave an MIC [3] of 19.4 µM (≈ 6.66 µg/mL).

Work on `Cc1cccc(OCC(C)NC(=O)NCCc2cnn(C)c2)c1` (stereo not drawn) [c47e] yielded a viability at 28.5 h, 0.000416667 µM [1] of 97.2%, a viability at 28.5 h, 0.00125 µM [1] of 99.7% and a viability at 28.5 h, 0.00375 µM [1] of 102%. The viability at 28.5 h, 0.0123333 µM [1] was 104%, the viability at 28.5 h, 0.037 µM [1] was 105% and the viability at 28.5 h, 0.111 µM [1] was 100%. It also gave a viability at 28.5 h, 0.333 µM [1] of 112%, a viability at 28.5 h, 1 µM [1] of 106% and a viability at 28.5 h, 3 µM [1] of 109%. It also gave a viability at 28.5 h, 10 µM [1] of 113%, a viability at 28.5 h, 30 µM [1] of 118% and an IC50 [2] of 6.59 µM. It also gave an MIC [3] of 12.1 µM (≈ 3.83 µg/mL).

In the case of `Oc1ccccc1Nc1nc(NC2CCCC2)c2ccccc2n1` [c49e], the viability at 28.5 h, 0.000416667 µM [1] is reported as 84.4%, the viability at 28.5 h, 0.00125 µM [1] is reported as 94.9% and the viability at 28.5 h, 0.00375 µM [1] is reported as 87.6%. The viability at 28.5 h, 0.0123333 µM [1] was 90%, the viability at 28.5 h, 0.037 µM [1] was 86% and the viability at 28.5 h, 0.111 µM [1] was 91.7%. The viability at 28.5 h, 0.333 µM [1] was 87.8%, the viability at 28.5 h, 1 µM [1] was 90.1% and the viability at 28.5 h, 3 µM [1] was 84.7%. The viability at 28.5 h, 10 µM [1] was 90.6%, the viability at 28.5 h, 30 µM [1] was 77.3% and the IC50 [2] was 7.48 µM. It also gave an MIC [3] of 10.8 µM (≈ 3.45 µg/mL).

With `O=C(NCCCn1ccnc1)c1cc(-c2cccc(Br)c2)nc2ccccc12` [c50e] the viability at 28.5 h, 0.000416667 µM [1] was 90.5%, the viability at 28.5 h, 0.00125 µM [1] was 90.8% and the viability at 28.5 h, 0.00375 µM [1] was 90.1%. The viability at 28.5 h, 0.0123333 µM [1] was 87.8%, the viability at 28.5 h, 0.037 µM [1] was 86.1% and the viability at 28.5 h, 0.111 µM [1] was 90.6%. The viability at 28.5 h, 0.333 µM [1] was 85.4%, the viability at 28.5 h, 1 µM [1] was 89.1% and the viability at 28.5 h, 3 µM [1] was 86.3%. The viability at 28.5 h, 10 µM [1] was 90%, the viability at 28.5 h, 30 µM [1] was 84.8% and the IC50 [2] was 7.95 µM. The MIC [3] was 9.27 µM (≈ 4.03 µg/mL).

In the case of `C1=C(CCNCCc2ccccc2)c2ccccc2C12CCCC2` [c51e], the viability at 28.5 h, 0.000416667 µM [1] is reported as 99.8%, the viability at 28.5 h, 0.00125 µM [1] is reported as 96.2% and the viability at 28.5 h, 0.00375 µM [1] is reported as 101%. For the same compound, the viability at 28.5 h, 0.0123333 µM [1] was 98.1%, the viability at 28.5 h, 0.037 µM [1] was 101% and the viability at 28.5 h, 0.111 µM [1] was 97.8%. For the same compound, the viability at 28.5 h, 0.333 µM [1] was 99.6%, the viability at 28.5 h, 1 µM [1] was 102% and the viability at 28.5 h, 3 µM [1] was 100%. It also gave a viability at 28.5 h, 10 µM [1] of 106%, a viability at 28.5 h, 30 µM [1] of 96.5% and an IC50 [2] of 8.3 µM. The MIC [3] was 9.36 µM (≈ 2.97 µg/mL).
